Reference: ChEMBL document CHEMBL4265917, “Antibacterial and antioxidant activities for natural and synthetic dual-active compounds” (Eur J Med Chem, 2018)
pEC50, pIC50: −log10 of the molar value. ≈ marks a conversion by molar mass, not a printed value.

How the values were obtained:
Staphylococcus aureus [1] = test: Antibacterial activity against methicillin-resistant Staphylococcus aureus after 24 hrs by microbroth dilution method; type: functional
Escherichia coli [2] = test: Antibacterial activity against Escherichia coli after 18 hrs by CLSI broth microdilution method; type: functional
Staphylococcus aureus [3] = test: Antibacterial activity against Staphylococcus aureus after 18 hrs by CLSI broth microdilution method; type: functional
[4] = Antioxidant activity assessed as DPPH free radical scavenging activity incubated for 30 mins in dark condition; type: functional
[5] = Antioxidant activity assessed as DPPH free radical scavenging activity; type: functional
Staphylococcus aureus [6] = test: Antibacterial activity against Staphylococcus aureus; type: functional
Escherichia coli [7] = test: Antibacterial activity against Escherichia coli; type: functional
[8] = Antioxidant activity assessed as DPPH free radical scavenging activity incubated for 30 min by UV-vis spectrophotometric analysis; type: functional
Escherichia coli [9] = test: Antibacterial activity against Escherichia coli KCTC 1924 after 20 to 36 hrs by disc diffusion method; type: functional
Staphylococcus aureus [10] = test: Antibacterial activity against Staphylococcus aureus KCTC 1916 after 20 to 36 hrs by disc diffusion method; type: functional
Staphylococcus aureus [11] = test: Antibacterial activity against Staphylococcus aureus ATCC 6538 by agar diffusion method; type: functional
Escherichia coli [12] = test: Antibacterial activity against Escherichia coli ATCC 10536 by agar diffusion method; type: functional
[13] = Antioxidant activity assessed as BTH equivalent of DPPH-induced radical scavenging activity; type: functional
Staphylococcus aureus [14] = test: Antibacterial activity against Staphylococcus aureus by turbidity assay; type: functional
Bacillus cereus = test: Antibacterial activity against Bacillus cereus by turbidity assay; type: functional
Escherichia coli [15] = test: Antibacterial activity against Escherichia coli by turbidity assay; type: functional
Proteus vulgaris = test: Antibacterial activity against Proteus vulgaris by turbidity assay; type: functional
Bacillus mycoides = test: Antibacterial activity against Bacillus mycoides FSB 1 after 18 to 24 hrs by microdilution method; type: functional
Bacillus subtilis [16] = test: Antibacterial activity against Bacillus subtilis FSB 2 after 18 to 24 hrs by microdilution method; type: functional
Micrococcus luteus = test: Antibacterial activity against Micrococcus lysodeikticus ATCC 4698 after 18 to 24 hrs by microdilution method; type: functional
Staphylococcus aureus [17] = test: Antibacterial activity against Staphylococcus aureus ATCC 25923 after 18 to 24 hrs by microdilution method; type: functional
Staphylococcus aureus [18] = test: Antibacterial activity against Staphylococcus aureus FSB 30 after 18 to 24 hrs by microdilution method; type: functional
Azotobacter chroococcum = test: Antibacterial activity against Azotobacter chroococcum FSB 14 after 18 to 24 hrs by microdilution method; type: functional
Enterobacter cloacae = test: Antibacterial activity against Enterobacter cloacae FSB 22 after 18 to 24 hrs by microdilution method; type: functional
[19] = test system: Pectobacterium carotovorum; test: Antibacterial activity against Erwinia carotovora FSB 31 after 18 to 24 hrs by microdilution method; type: functional
Escherichia coli [20] = test: Antibacterial activity against Escherichia coli ATCC 25922 after 18 to 24 hrs by microdilution method; type: functional
Klebsiella pneumoniae = test: Antibacterial activity against Klebsiella pneumoniae FSB 26 after 18 to 24 hrs by microdilution method; type: functional
Pseudomonas fluorescens = test: Antibacterial activity against Pseudomonas fluorescens FSB 28 after 18 to 24 hrs by microdilution method; type: functional
Pseudomonas syringae = test: Antibacterial activity against Pseudomonas glycinea FSB 40 after 18 to 24 hrs by microdilution method; type: functional, Pseudomonas savastanoi pv. glycinea
[21] = test system: Pseudomonas savastanoi pv. phaseolicola; test: Antibacterial activity against Pseudomonas phaseolicola FSB 29 after 18 to 24 hrs by microdilution method; type: functional
[22] = Antioxidant activity assessed as DPPH free radical scavenging activity after 30 to 60 mins by UV-vis spectrophotometric analysis; type: functional
Enterococcus faecalis = test: Antibacterial activity against Enterococcus faecalis; type: functional
Bacillus subtilis [23] = test: Antibacterial activity against Bacillus subtilis ATCC 11562 by colorimetric based broth dilution method; type: functional, organism-based
[24] = test system: Pseudomonas amygdali pv. lachrymans; test: Antibacterial activity against Pseudomonas syringae pv. lachrymans ATCC 11921 by colorimetric based broth dilution method; type: functional, organism-based

For `COc1cc(/C=C/c2cc(/C=C/c3ccc(OCC(=O)NCc4ccccc4)c(OC)c3)[nH]n2)ccc1OCC(=O)NCc1ccccc1`, the MIC (Staphylococcus aureus [1]) was 10 to 20 µg/mL (≈ 15.2 to 30.4 µM).

Work on `Cc1c(O)cc(CCCCCCCCCC[P+](c2ccccc2)(c2ccccc2)c2ccccc2)c(O)c1C` yielded an MIC (Escherichia coli [2]) of 0.6 to 19 µg/mL and an MIC (Staphylococcus aureus [3]) of 0.6 µg/mL.

`COc1cc(C2CC(C(=NNc3ccc(C)cc3)C3=NC(=S)NC(c4ccc(O)c(OC)c4)C3)=NC(=S)N2)ccc1O` (centres undefined) showed an IC50 [4] of 0.679 µg/mL (≈ 1.13 µM).

In the case of `COc1cccc2c1OCC(c1nnn(Cc3cn(Cc4ccccc4)nn3)n1)=C2`, the IC50 [5] was 78.74 µg/mL (≈ 196 µM), the MIC (Staphylococcus aureus [6]) was 10.5 µg/mL (≈ 26.2 µM) and the MIC (Escherichia coli [7]) was 9.5 µg/mL (≈ 23.7 µM).

With `COc1cc(/C=C/c2cc(/C=C/c3ccc(OCC(=O)Nc4ccc(F)cc4)c(OC)c3)[nH]n2)ccc1OCC(=O)Nc1ccc(F)cc1` the MIC (Staphylococcus aureus [1]) was 10 to 20 µg/mL (≈ 15 to 30 µM).

With `Oc1ccc2ccccc2c1-c1c[nH]c2ccc(F)cc12` the EC50 [8] was 3 µg/mL (≈ 10.8 µM), the MIC (Escherichia coli [9]) was 8.71 µg/mL (≈ 31.4 µM) and the MIC (Staphylococcus aureus [10]) was 7.32 µg/mL (≈ 26.4 µM).

In the case of `COc1cc(/C=C/c2cc(/C=C/c3ccc(OCC(=O)Nc4ccccc4)c(OC)c3)[nH]n2)ccc1OCC(=O)Nc1ccccc1`, the MIC (Staphylococcus aureus [1]) was 10 to 20 µg/mL (≈ 15.9 to 31.7 µM).

`O=C(CCc1ccc(O)cc1)c1c(O)cc(O)cc1O` [PHLORETIN] gave an MIC (Staphylococcus aureus [11]) of 100 µg/mL (≈ 365 µM), an MIC (Escherichia coli [12]) of 250 µg/mL (≈ 912 µM) and an Activity [13] of 1.27 mg.equiv.

`COc1cc(/C=C/c2cc(/C=C/c3ccc(OCC(=O)Nc4ccccc4C)c(OC)c3)[nH]n2)ccc1OCC(=O)Nc1ccccc1C` showed an MIC (Staphylococcus aureus [1]) of 10 to 20 µg/mL (≈ 15.2 to 30.4 µM).

For `COc1c2cc(C)cc1n1cc(ccc3cn(c4cc(C)cc(c4OC)n4cc(ccc5cn2c2ccccc52)c2ccccc24)c2ccccc32)c2ccccc21`, the IC50 [5] was 28 µg/mL (≈ 37.2 µM), the MIC (Staphylococcus aureus [14]) was 7.81 to 31.2 µg/mL (≈ 10.4 to 41.5 µM) and the MIC (Bacillus cereus) was 7.81 to 31.2 µg/mL (≈ 10.4 to 41.5 µM). The MIC (Escherichia coli [15]) was 7.81 to 31.2 µg/mL (≈ 10.4 to 41.5 µM) and the MIC (Proteus vulgaris) was 7.81 to 31.2 µg/mL (≈ 10.4 to 41.5 µM).

Work on `Cc1ccc(NC(C)c2c(O)c3ccccc3oc2=O)cc1` (centres undefined) yielded an MIC (Bacillus mycoides) of 3.9 to 7.8 µg/mL (≈ 13.2 to 26.4 µM), an MIC (Bacillus subtilis [16]) of 3.9 to 7.8 µg/mL (≈ 13.2 to 26.4 µM) and an MIC (Micrococcus luteus) of 3.9 to 7.8 µg/mL (≈ 13.2 to 26.4 µM). The MIC (Staphylococcus aureus [17]) was 3.9 to 7.8 µg/mL (≈ 13.2 to 26.4 µM), the MIC (Staphylococcus aureus [18]) was 3.9 to 7.8 µg/mL (≈ 13.2 to 26.4 µM) and the MIC (Azotobacter chroococcum) was 3.9 to 7.8 µg/mL (≈ 13.2 to 26.4 µM). It also gave an MIC (Enterobacter cloacae) of 3.9 to 7.8 µg/mL (≈ 13.2 to 26.4 µM), an MIC [19] of 3.9 to 7.8 µg/mL (≈ 13.2 to 26.4 µM) and an MIC (Escherichia coli [20]) of 3.9 to 7.8 µg/mL (≈ 13.2 to 26.4 µM). For the same compound, the MIC (Klebsiella pneumoniae) was 3.9 to 7.8 µg/mL (≈ 13.2 to 26.4 µM), the MIC (Pseudomonas fluorescens) was 3.9 to 7.8 µg/mL (≈ 13.2 to 26.4 µM) and the MIC (Pseudomonas syringae) was 3.9 to 7.8 µg/mL (≈ 13.2 to 26.4 µM). It also gave an MIC [21] of 3.9 to 7.8 µg/mL (≈ 13.2 to 26.4 µM) and a pIC50 [22] of 4.03.

For `O=C(/C=C/c1ccc(O)c(O)c1)O[C@@H]1C[C@](O)(C(=O)O)C[C@@H](O)[C@H]1O` [CHLOROGENIC ACID], the EC50 [5] was 13.8 µg/mL (≈ 38.9 µM), the MIC (Staphylococcus aureus [6]) was 32 to 128 µg/mL (≈ 90.3 to 361 µM) and the MIC (Enterococcus faecalis) was 32 to 128 µg/mL (≈ 90.3 to 361 µM).

In the case of `COc1cc(O)c2c(=O)oc3c(O)c(O)cc(C)c3c2c1`, the pEC50 [4] was 4.17, the pIC50 (Bacillus subtilis [23]) was 4.54 and the pIC50 [24] was 5.15.

Work on `Cc1c(-c2cc(-c3ccc(F)cc3)nc(N)n2)nnn1-c1ccc(Cl)c(Cl)c1` yielded an IC50 [4] of 59.07 µg/mL (≈ 142 µM).

`COc1cc(/C=C/c2cc(/C=C/c3ccc(OCC(=O)NC45CC6CC(CC(C6)C4)C5)c(OC)c3)[nH]n2)ccc1OCC(=O)NC12CC3CC(CC(C3)C1)C2` gave an MIC (Staphylococcus aureus [1]) of 10 to 20 µg/mL (≈ 13.4 to 26.8 µM).

Compound `COc1cc(/C=C/c2cc(/C=C/c3ccc(OCC(=O)Nc4ccc(C)cc4)c(OC)c3)[nH]n2)ccc1OCC(=O)Nc1ccc(C)cc1` has an MIC (Staphylococcus aureus [1]) of 10 to 20 µg/mL (≈ 15.2 to 30.4 µM).
